The results in this text go back to US12646341B2, “Image processing method and image processing program” (TOPPAN Inc., priority 2020, dated 2026).

For the data set, the system named is vascular network structure of 3D hepatic model (PXB cells, SEC, Lx2).

The structures appear in SMILES notation.

Source text: The vascular network structure of the cell structure becomes visible by subjecting the 3D hepatic model to immunostaining, fluorescent modification, or a combination of immunostaining and fluorescent modification.
The preparation process may include, for example, a first collection process of collecting cells other than fresh human hepatocytes isolated from chimeric mice with human hepatocytes (PXB cell) shown in Table 1, a second collection process of collecting PXB cells, a mixture obtaining process of obtaining a cell mixture, a suspension obtaining process of obtaining a cell suspension, a gel formation process of forming a fibrin gel, and a model obtaining process of obtaining a 3D model.
In the mixture obtaining process, for example, the cells collected in the first collection process and the second collection process are mixed so that a total quantity of cells per well becomes 30,000 cells at the cell ratios of PXB cells, SEC and Lx2 in the tissue of 65%, 25% and 10%, respectively, to obtain a cell mixture (an example of cell structure). The cell mixture contains multiple types of cells including vascular endothelial cells and other stromal cells.
In the suspension obtaining process, first, for example, a heparin-collagen solution is prepared by mixing equal amounts of a 1.0 mg/ml heparin solution (buffer: 100 mM Tris-HCL) and a 0.3 mg/ml collagen solution (buffer: 5 mM acetate). Then, 100 μL of the heparin-collagen solution prepared as described above is added to each cell mixture obtained in the mixture obtaining process, and the mixture is suspended until the cells are no longer visually observable and then centrifuged (400 g×2 min) to obtain a viscous solution. After the supernatant is removed from the viscous solution, a solvent is added to the viscous solution so that the final volume of the viscous solution becomes the solution amount of [the number of wells to be seeded]×2 μL. Thus, a cell suspension is obtained. […]

As for `O=P1(N(CCCl)CCCl)NCCCO1` (stereo not drawn) [cyclophosphamide], the “length of the vascular network structure in the captured images” value (FIGS. 9A-9F, dosage concentration 0 M, 143 M, 430 M, 1430 μM, 4300 μM and 14300 M) is recorded as “the higher the dosage concentration of cyclophosphamide, the smaller the length of the vascular network structure”. Further, the “skeleton length in the extracted images” value (FIGS. 9G-9L, dosage concentration 0 M, 143 M, 430 M, 1430 μM, 4300 μM and 14300 M) was “the higher the dosage concentration of cyclophosphamide, the smaller the skeleton length”. Further, the “shape of the vascular network structure (skeleton length and number of branch points in the extracted images)” value (FIGS. 10A and 10B, against dosage concentration) was “the shape of the vascular network structure significantly changes and the vascular network structure decreases when the dosage concentration of cyclophosphamide exceeds a certain level”.
